Assay results as given in patent EP0475531A1, “Benzoic acid phenylester compounds and elastase inhibiting compositions containing the same” (Asahi Kasei Kogyo Kabushiki Kaisha, priority 1990, dated 1992).

target: T1, human leukocyte elastase (Homo sapiens, UniProt P08246); assay: in vitro human leukocyte elastase inhibiting activity (fluorogenic substrate, method of JP-A-2-101017 with slight modification); type: biochemical; conditions: 50% inhibitory concentration; substrate methoxysuccinyl-Ala-Ala-Pro-Val-7-amido-4-methylcoumarin; 0.2 M Tris-hydrochloride buffer (0.02 M CaCl2, 0.005% Triton X-100), pH 7.2; compound and enzyme incubated at 25°C for 20 minutes; read-out: IC50
T1 sequence (P08246 30-267): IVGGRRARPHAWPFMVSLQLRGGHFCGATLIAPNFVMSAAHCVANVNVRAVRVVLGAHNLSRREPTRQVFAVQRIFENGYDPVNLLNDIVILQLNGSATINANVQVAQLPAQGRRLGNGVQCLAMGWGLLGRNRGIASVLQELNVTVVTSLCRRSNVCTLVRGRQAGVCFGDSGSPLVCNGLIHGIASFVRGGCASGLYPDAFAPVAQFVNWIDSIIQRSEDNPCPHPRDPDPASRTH
Experimental: Thus, methoxysuccinyl-Ala-Ala-Pro-Val-7-amido-4-methylcoumarin was used as a substrate for human leukocyte elastase and the 50% inhibitory concentration (IC₅₀) was measured. The enzymatic reaction was carried out in 0.2 M Tris-hydrochloride buffer (containing 0.02 M CaCl₂ and 0.005% Triton X-100) at pH 7.2. Each mixture of test compound solution and the enzyme solution was incubated at 25°C for 20 minutes.

IC50 | SMILES
400 nM | CC(C)C(=O)Nc1ccc(C(=O)Oc2cccc(OC(F)(F)F)c2)cc1 [Compound 89, 3-trifluoromethoxyphenyl 4-(isobutanoylamino)benzoate]
11 nM | COc1cc(Cl)cc(OC(=O)c2ccc(NC(=O)C(C)C)cc2)c1 [Compound 90, 3-chloro-5-methoxyphenyl 4-(isobutanoylamino)benzoate]
300 nM | COc1cc(OC)cc(OC(=O)c2ccc(NC(=O)C(C)C)cc2)c1 [Compound 91, 3,5-dimethoxyphenyl 4-(isobutanoylamino)benzoate]
91 nM | CC(C)C(=O)Nc1ccc(C(=O)Oc2cccc([N+](=O)[O-])c2)cc1 [Compound 92, 3-nitrophenyl 4-(isobutanoylamino)benzoate]
240 nM | CC(C)C(=O)Nc1ccc(C(=O)Oc2cccc(C(F)(F)F)c2)cc1 [Compound 94, 3-trifluoromethylphenyl 4-(isobutanoylamino)benzoate]
570 nM | N=C(N)Nc1ccc(C(=O)Oc2cc(Cl)cc(Cl)c2)cc1 [Compound 95, reference compound]

SMILES | IC50
CC(=O)Oc1cc(C#N)cc(OC(=O)c2ccc(NC(=O)C(C)C)cc2)c1 [Compound 93, 3-cyano-5-acetoxyphenyl 4-(isobutanoylamino)benzoate] | 36 nM
